Data taken from publication doi:10.1101/2024.06.26.600887v2 (biorxiv, 2024).

Assays:
[1] = target: T1, His-HAO1 (recombinant glycolate oxidase, 2-hydroxyacid oxidase) (Homo sapiens, UniProt Q9UJM8); test: DSF thermal stabilisation, SYPRO Orange; type: binding
T1 sequence (Q9UJM8 1-370): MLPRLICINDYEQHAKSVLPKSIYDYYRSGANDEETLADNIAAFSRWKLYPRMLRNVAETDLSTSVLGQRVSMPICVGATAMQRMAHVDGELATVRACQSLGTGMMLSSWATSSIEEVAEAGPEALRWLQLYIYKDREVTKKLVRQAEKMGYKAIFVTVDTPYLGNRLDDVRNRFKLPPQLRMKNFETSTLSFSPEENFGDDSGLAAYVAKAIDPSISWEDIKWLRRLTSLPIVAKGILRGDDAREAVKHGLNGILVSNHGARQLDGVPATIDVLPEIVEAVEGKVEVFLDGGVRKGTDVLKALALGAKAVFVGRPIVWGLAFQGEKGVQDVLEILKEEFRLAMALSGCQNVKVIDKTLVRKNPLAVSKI

HAO1-HiBiT = target: T2, HAO1-HiBiT (Homo sapiens, UniProt Q9UJM8); test: SplitLuc CETSA in HEK293T lysate, LgBiT luminescence; type: biochemical
T2 sequence (Q9UJM8 1-370): T1 sequence (Q9UJM8 1-370)

[2] = target: T1, His-HAO1 (recombinant glycolate oxidase, 2-hydroxyacid oxidase); test: Amplex Red activity assay; type: biochemical
[3] = target: T1, His-HAO1 (recombinant glycolate oxidase, 2-hydroxyacid oxidase); test: SPR; type: binding

| Compound | EC50 [1] | EC50 (HAO1-HiBiT) | IC50 [2] | Kd [3] |
| --- | --- | --- | --- | --- |
| NS(=O)(=O)c1ccc(Cc2c(-c3ccc(F)c(-c4ccc(Oc5nn[nH]c5C(=O)O)cc4)c3)nn(-c3nc(C(=O)O)cs3)c2CC2CC2)cc1F [compound 1, Compound 1] | 5010 nM | 2200 nM | 25.1 nM | 3.9 nM |
| O=C(O)c1nn[nH]c1Oc1ccc(-c2ccc(C3CC(F)(F)C3)cc2)cc1 [compound 2, Compound 2] | 3980 nM | 1800 nM | 20 nM | 4.4 nM |
